Earlier results in PubChem BioAssay AID1259409 (Chemical Carcinogenesis Research Information System (CCRIS), 2018).

System: rodent chemically induced tumor inhibition, incidence and multiplicity
Assay: CCRIS tumor inhibitor studies

## CSS(C)(=O)=O
Carcinogen: AZOXYMETHANE, 25843-45-2, Dose [Inhibitor]: 0, 20 PPM IN DIET FOR 32 WK BEGINNING 1 WK POST CARCINOGEN TREATMENT (STUDY DURATION: 36 WK), Route [Inhibitor]: ORAL, Species: RAT, Strain/Sex: (30,30)/(30,24), Target Tissue: Type of Lesion: SMALL INTESTINE: ADENOMA OR ADENOCARCINOMA, Dose [Carcinogen]: 15 MG/KG BW 1/WK FOR 3 WK, Promoter: NONE USED
  tumour outcome (control, treated, inhibition, significance): 4/30 (13%), 1/24 (4%), 69%, not significant
Carcinogen: AZOXYMETHANE, 25843-45-2, Dose [Inhibitor]: 0, 20 PPM IN DIET FOR 32 WK BEGINNING 1 WK POST CARCINOGEN TREATMENT (STUDY DURATION: 36 WK), Route [Inhibitor]: ORAL, Species: RAT, Strain/Sex: F344/MALE, Target Tissue: Type of Lesion: LARGE INTESTINE: ADENOMA OR ADENOCARCINOMA, Dose [Carcinogen]: 15 MG/KG BW 1/WK FOR 3 WK, Promoter: NONE USED
  tumour outcome (control, treated, inhibition, significance): 17/30 (57%), 9/24 (38%), 33%, not significant
Carcinogen: AZOXYMETHANE, 25843-45-2, Dose [Inhibitor]: 0, 100 PPM IN DIET FOR 32 WK BEGINNING 1 WK POST CARCINOGEN TREATMENT (STUDY DURATION: 36 WK), Route [Inhibitor]: ORAL, Species: RAT, Strain/Sex: F344/MALE, Target Tissue: Type of Lesion: LARGE INTESTINE: ADENOMA OR ADENOCARCINOMA, Dose [Carcinogen]: 15 MG/KG BW 1/WK FOR 3 WK, Promoter: NONE USED
  tumour outcome (control, treated, inhibition, significance): 17/30 (57%), 2/28 (7%), 88%, p<0.0001
Carcinogen: AZOXYMETHANE, 25843-45-2, Dose [Inhibitor]: 0, 100 PPM IN DIET FOR 32 WK BEGINNING 1 WK POST CARCINOGEN TREATMENT (STUDY DURATION: 36 WK), Route [Inhibitor]: ORAL, Species: RAT, Strain/Sex: F344/MALE, Target Tissue: Type of Lesion: SMALL INTESTINE: ADENOMA OR ADENOCARCINOMA, Dose [Carcinogen]: 15 MG/KG BW 1/WK FOR 3 WK, Promoter: NONE USED
  tumour outcome (control, treated, inhibition, significance): 4/30 (13%), 4/28 (14%), -7%, not significant
Carcinogen: DIETHYLNITROSAMINE, 55-18-5, Dose [Inhibitor]: 0, 100 PPM IN DIET FOR 4 WK BEGINNING 1 WK PRIOR TO CARCINOGEN TREATMENT (STUDY DURATION: 24 WK), Route [Inhibitor]: ORAL, Species: RAT, Strain/Sex: F344/MALE, Target Tissue: Type of Lesion: LIVER: HEPATOCELLULAR ADENOMA, Dose [Carcinogen]: 100 MG/KG BW 1/WK FOR 3 WK, Promoter: PHENOBARBITAL, 50-06-6
  tumour outcome (control, treated, inhibition, significance): 95%, 89%, 6%, not significant
Carcinogen: DIETHYLNITROSAMINE, 55-18-5, Dose [Inhibitor]: 0, 100 PPM IN DIET FOR 4 WK BEGINNING 1 WK PRIOR TO CARCINOGEN TREATMENT (STUDY DURATION: 24 WK), Route [Inhibitor]: ORAL, Species: RAT, Strain/Sex: F344/MALE, Target Tissue: Type of Lesion: LIVER: HEPATOCELLULAR CARCINOMA, Dose [Carcinogen]: 100 MG/KG BW 1/WK FOR 3 WK, Promoter: PHENOBARBITAL, 50-06-6
  tumour outcome (control, treated, inhibition, significance): 70%, 89%, -27%, not significant
Carcinogen: DIETHYLNITROSAMINE, 55-18-5, Dose [Inhibitor]: 0, 100 PPM IN DIET FOR 20 WK BEGINNING 1 WK POST CARCINOGEN TREATMENT (STUDY DURATION: 24 WK), Route [Inhibitor]: ORAL, Species: RAT, Strain/Sex: F344/MALE, Target Tissue: Type of Lesion: LIVER: HEPATOCELLULAR ADENOMA, Dose [Carcinogen]: 100 MG/KG BW 1/WK FOR 3 WK, Promoter: PHENOBARBITAL, 50-06-6
  tumour outcome (control, treated, inhibition, significance): 95%, 55%, 42%, p<0.005
Carcinogen: DIETHYLNITROSAMINE, 55-18-5, Dose [Inhibitor]: 0, 100 PPM IN DIET FOR 20 WK BEGINNING 1 WK POST CARCINOGEN TREATMENT (STUDY DURATION: 24 WK), Route [Inhibitor]: ORAL, Species: RAT, Strain/Sex: F344/MALE, Target Tissue: Type of Lesion: LIVER: HEPATOCELLULAR CARCINOMA, Dose [Carcinogen]: 100 MG/KG BW 1/WK FOR 3 WK, Promoter: PHENOBARBITAL, 50-06-6
  tumour outcome (control, treated, inhibition, significance): 70%, 81%, -16%, not significant

## O=C(O)CCSCCC(=O)O
Carcinogen: 7,12-DIMETHYLBENZ[A]ANTHRACENE, 57-97-6, Dose [Inhibitor]: 1.0% IN POWDERED DIET BEGINNING 1 WK POST CARCINOGEN DOSE FOR 51 WK (STUDY DURATION: 52 WK), Route [Inhibitor]: ORAL, Species: RAT, Strain/Sex: SPRAGUE-DAWLEY/FEMALE, Target Tissue: Type of Lesion: EAR DUCT: BENIGN TUMOR, Dose [Carcinogen]: 2.5 MG/100 G BW IN 0.5 ML SESAME OIL ONCE, Promoter: NONE USED
  tumour outcome (control, treated, inhibition, significance): 7/19 (37%), 2/19 (11%), 72%, not calculated
Carcinogen: 7,12-DIMETHYLBENZ[A]ANTHRACENE, 57-97-6, Dose [Inhibitor]: 1.0% IN POWDERED DIET BEGINNING 1 WK POST CARCINOGEN DOSE FOR 51 WK (STUDY DURATION: 52 WK), Route [Inhibitor]: ORAL, Species: RAT, Strain/Sex: SPRAGUE-DAWLEY/FEMALE, Target Tissue: Type of Lesion: MAMMARY GLAND: FIBROADENOMA, Dose [Carcinogen]: 2.5 MG/100 G BW IN 0.5 ML SESAME OIL ONCE, Promoter: NONE USED
  tumour outcome (control, treated, inhibition, significance): 15/19 (79%), 9/19 (47%), 40%, not calculated

## C[C@@H](O)[C@@H]1NC(=O)[C@H](CCCCN)NC(=O)[C@@H](Cc2c[nH]c3ccccc23)NC(=O)[C@H](Cc2ccccc2)NC(=O)[C@@H](NC(=O)[C@H](N)Cc2ccccc2)CSSC[C@@H](C(=O)N[C@H](CO)[C@@H](C)O)NC1=O
Carcinogen: N-NITROSOBIS(2-OXOPROPYL)AMINE [60599-38-4], Dose [Inhibitor]: 0, 3 UG/KG/D FOR 4 WK BEGINNING 1 WK PRIOR TO FIRST CARCINOGEN (STUDY DURATION: 40 WK), Route [Inhibitor]: SUBCUTANEOUSLY IMPLANTED OSMOTIC PUMP, Species: HAMSTER, Strain/Sex: SYRIAN/FEMALE, Target Tissue: Type of Lesion: PANCREAS: ADENOCARCINOMA, Dose [Carcinogen]: 10 MG/KG BW ONCE/WK FOR 3 WK (STUDY DURATION: 40 WK), Promoter: NONE
  tumour outcome (control, treated, inhibition, significance): 8/18 (44%), 11/20 (55%), -25%, not significant
Carcinogen: N-NITROSOBIS(2-OXOPROPYL)AMINE [60599-38-4], Dose [Inhibitor]: 0, 6 UG/KG/D FOR 4 WK BEGINNING 1 WK PRIOR TO FIRST CARCINOGEN (STUDY DURATION: 40 WK), Route [Inhibitor]: SUBCUTANEOUSLY IMPLANTED OSMOTIC PUMP, Species: HAMSTER, Strain/Sex: SYRIAN/FEMALE, Target Tissue: Type of Lesion: PANCREAS: ADENOCARCINOMA, Dose [Carcinogen]: 10 MG/KG BW ONCE/WK FOR 3 WK (STUDY DURATION: 40 WK), Promoter: NONE
  tumour outcome (control, treated, inhibition, significance): 8/18 (44%), 9/20 (45%), -2%, not significant
